Reference: patent US6969763B1, “Molecular interaction sites of interleukin-2 RNA and methods of modulating the same” (priority 1999, dated 2005)
Converted amounts (≈) assume the structure as drawn. Like-named read-outs stand apart in the source and are kept apart here.

How the values were obtained:
[1] = test system: TAR; conditions: in words, assay not described
[2] = test system: TAR RNA / tat peptide; test: disruption of TAR RNA interaction with tat peptide; assay type: binding, HIV
[3] = test system: HIV TAR RNA structure in the 5'-UTR of luciferase mRNA; test: wheat germ lysate translation of luciferase mRNA containing the TAR RNA structure in the 5'-UTR; assay type: biochemical
Text: It is believed that stabilization of mRNA structures near the 5′-cap also could be effected by specific “small” molecules, and that such binding would reduce the translational efficiency of the mRNA. To test this hypothesis, a plasmid was constructed containing the luciferase message behind a 5′-UTR containing a 27-mer RNA construct of the HIV TAR stem-loop bulge whose structure had been determined by NMR. The resulting mRNA could be expressed and capped in a wheat germ lysate translation system supplemented with T7 polymerase following addition of m^7G to the lysate (see, FIG. 38A). Insertion of a 9-base leader before the TAR structure (HIVluc+9) enhanced the translational efficiency, presumably by allowing the pre-initiation complex to form. The helicase activity associated with the pre-initiation complex can transiently melt out the TAR RNA structure, and the message is translated (see, FIG. 38A).

[4] = test system: luciferase mRNA; test: wheat germ lysate translation of control luciferase mRNA (luc+9); assay type: biochemical; conditions: in words
Text: It is believed that stabilization of mRNA structures near the 5′-cap also could be effected by specific “small” molecules, and that such binding would reduce the translational efficiency of the mRNA. To test this hypothesis, a plasmid was constructed containing the luciferase message behind a 5′-UTR containing a 27-mer RNA construct of the HIV TAR stem-loop bulge whose structure had been determined by NMR.

[5] = test system: E. coli; test: high throughput screening assay for antibacterial activity (MIC); assay type: cell-based; conditions: Escherichia coli, read-out: minimum inhibitory concentrations (MIC's)
Text: This activity was verified by manual solution synthesis of analytically pure material as described in Example 6 above, which had identical activity.

[6] = target: decoding region of the prokaryotic 16S rRNA (the A-site); conditions: 16S A-site, read-out: solution dissociation constant (literature), cited from earlier work
[7] = target: 27-mer model RNA sequence of the 16S A-site; test: MASS assay with the 27-mer model RNA sequence of the 16S A-site (Table 6); assay type: binding; conditions: 27-mer model RNA of the 16S A-site
Method: (§1) The compounds are screened for binding affinity using MASS or conventional high-throughput functional screens. […] The MASS assay was performed with the 27-mer model RNA sequence of the 16S A-site whose NMR structure has been determined. The transcription/translation assay was based on expression of a luciferase plasmid.
(§2) Paromomycin is an aminoglycoside antibiotic known to bind to the A-site RNA structure. The NMR structure was determined with paromomycin bound at the A-site.

[8] = target: 16S rRNA A-site 27-mer RNA model; test: ESI-FTICR mass spectrometry (MASS) binding to 16S A-site 27-mer RNA model; design: species or system prokaryotic; conditions: for Kd: 16S A site 27mer, read-out: MS-measured dissociation constant (KD); for complex formation with 16S A site RNA: aminoglycosides 500 nM each, in words
Method: (§3) The ESI-FTICR mass spectrum depicted in FIG. 70 was acquired from a […] mixture of untagged 16S and tagged 18S in the presence of an equimolar mixture of five aminoglycosides. It is to be understood that other biomolecules may be used in place of the aminoglycosides. The aminoglycosides have been selected from two classes of 2-deoxystreptamines: 4,5-disubstituted (paromomycin, and lividomycin), and 4,6-disubstituted (tobramycin, sisomicin, and bekanamycin), present at 500 nM each. Complexes corresponding to 1:1 binding of individual aminoglycosides were observed between 16S and all members of the aminoglycoside mixture, with the apparent affinities estimated from the abundances of the respective complexes differing substantially. Signal intensities from the complexes with paromomycin (m/z 1925.572) and lividomycin (m/z 1954.790) are consistent with MS-measured dissociation constants of 110 nM and 28 nM, respectively. The intensities of 16S complexes with tobramycin (m/z 1895.960), bekanamycin (m/z 1899.171), and sisomicin (m/z 1891.972) were reduced, consistent with solution dissociation constants of […]. Wang, et al., Biochemistry, 1997, 36, 768-779. […] The spectrum is calibrated using multiple isotope peaks of the (M−5H^+)^5- and (M−4H^+)^4- charge states of the free RNA as internal mass standards which brackets the m/z range in which complexes are observed. The average mass measurement error obtained for the complexes in FIG. 70 is 2.1 ppm when m/z differences are measured between the most abundant (4 ^13C) isotope peak of 16S and each complex. This post calibration scheme is easily automated which enables rapid, high precision mass measurements of affinity selected ligands against multiple targets in a high throughput mode.
ESI-MS measurements of a solution containing a fixed concentration of RNA at different concentrations of ligand were obtained. By measuring the ratio of bound:unbound RNA at varying ligand concentrations, the Kd was determined by 1/slope of the “titration curve”. The MS derived value of 110 nM is in good agreement with previously reported literature value of 200 nM.
Paromomycin, lividomycin (MW=761.354 Da), sisomicin (MW=447.269 Da), tobramycin (MW=467.2591 Da), and bekanamycin (MW=483.254 Da) were obtained from Sigma (St. Louis, Mo.) and ICN (Costa Mesa, Calif.) and were dissolved to generate 10 mM stock solutions. 2′ methoxy analogs of RNA constructs representing the prokaryotic (16S).rRNA and eukaryotic (18S) rRNA A-site (FIG. 68) were synthesized in house and precipitated twice from 1 M ammonium acetate following deprotection with ammonia (pH 8.5). The mass-tagged constructs contained an 18-atom mass tag (C12H25O9) attached to the 5′-terminus of the RNA oligomer through a phosphodiester linkage.
All mass spectrometry experiments were performed using an Apex 11 70e electrospray ionization Fourier transform ion cyclotron resonance mass spectrometer (Bruker Daltonics, Billerica) employing an actively shielded 7 tesla superconducting magnet. RNA solutions were prepared in 50 mM NH4OAc (pH 7), mixed 1: v:v with isopropanol to aid desolvation, and infused at a rate of […] using a syringe pump. Ions were formed in a modified electrospray source (Analytica, Branford) employing an off axis, grounded electrospray probe positioned ca. 1.5 cm from the metalized terminus of the glass desolvation capillary biased at 5000 V. A counter-current flow of dry oxygen gas heated to 225° C. was employed to assist in the desolvation process. Ions were accumulated in an external ion reservoir comprised of an RF-only hexapole, a skimmer cone, and an auxiliary electrode for 1000 ms prior to transfer into the trapped ion cell for mass analysis. Each spectrum was the result of the coaddition of 16 transients comprised of 256 datapoints acquired over a 90,909 kHz bandwidth resulting in a 700 ms detection interval. […]

[9] = test system: translation of a luciferase plasmid; test: transcription/translation assay based on expression of a luciferase plasmid; assay type: biochemical; conditions: inhibition of translation of a luciferase plasmid
Method: as §1, §2

[10] = test system: 18S rRNA A-site 27-mer RNA model; test: ESI-FTICR mass spectrometry binding to mass-tagged 18S A-site 27-mer RNA model; design: species or system eukaryotic; conditions: aminoglycosides 500 nM each, in words
Method: as §3, with “The” for “The spectrum is calibrated using multiple isotope peaks of the (M−5H^+)^5- and (M−4H^+)^4- charge states of the free RNA as internal mass standards which brackets the m/z range in which complexes are observed. The”, “This post calibration scheme is easily automated which enables rapid, high precision mass measurements of affinity selected ligands against multiple targets in a high throughput mode.” left out

CNc1ccc(NCCO)c2c1C(=O)c1ccccc1C2=O [ACD 00001199]
IC5, values [1]: low | concentration disrupting the TAR RNA interaction with tat peptide [2]: 1 µM | inhibition of translation of luciferase mRNA containing TAR RNA structure ([3]; in words): dose-dependent inhibition of translation | IC50 ([3]; luciferase mRNA containing the TAR RNA structure in the 5'-UTR, read-out: concentration reducing translation by 50%): 50000 nM | inhibition of translation of the luciferase mRNA (control) [4]: some inhibition of translation at very high concentrations

O=C(NO)[C@@H](Cc1ccc2ccccc2c1)NS(=O)(=O)c1ccc2ccccc2c1 [Compound 5-n-ii, (2R)-3-(2-naphthyl)-2-((2-naphthylsulfonyl)amino)propanehydroxamic acid]
MIC [5]: 0.7 to 1.5 µM (≈ 0.294 to 0.631 µg/mL)

O=C(NO)[C@@H](Cc1ccc2ccccc2c1)NS(=O)(=O)c1ccc(Br)cc1 [Compound 5n-vi, (2R)-2-(((4-bromophenyl)sulfonyl)amino)-3-(2-naphthyl)propanehydroxamic acid]
MIC [5]: 3 to 6 µM (≈ 1.35 to 2.7 µg/mL)

NC[C@@H]1O[C@H](O[C@H]2[C@@H](O)[C@H](O[C@@H]3[C@@H](O)[C@H](N)C[C@H](N)[C@H]3O[C@H]3O[C@H](CO)[C@@H](O)[C@H](O)[C@H]3N)O[C@@H]2CO)[C@H](N)[C@@H](O)[C@@H]1O [Paromomycin]
Kd ([6]; listed as paromomycin): 200 nM | Kd [6]: ~200 nM | Kd [7]: 500 nM | Kd [8]: 110 nM | complex formation with 16S A site RNA [8]: High affinity complexes | Activity^1 [9]: 0.3 µM | complex formation with 18S A site RNA [10]: complete absence of complexes

NC[C@H]1O[C@H](O[C@H]2[C@H](O)[C@@H](O[C@H]3O[C@H](CO)[C@@H](O)[C@H](N)[C@H]3O)[C@H](N)C[C@@H]2N)[C@H](N)[C@@H](O)[C@@H]1O [bekanamycin]
complex formation with 16S A site RNA [8]: Weaker complexes

NC[C@@H]1O[C@H](O[C@H]2[C@@H](O)[C@H](O[C@@H]3[C@@H](O)[C@H](N)C[C@H](N)[C@H]3O[C@H]3O[C@H](CO)[C@@H](O)C[C@H]3N)O[C@@H]2CO)[C@H](N)[C@@H](O)[C@@H]1O[C@H]1O[C@H](CO)[C@@H](O)[C@H](O)[C@@H]1O [lividomycin]
enhancement of binding affinity for 16S relative to paromomycin [8]: ~4 fold | Kd [8]: 28 nM | complex formation with 16S A site RNA [8]: High affinity complexes | complex formation with 18S A site RNA [10]: complete absence of complexes

CN[C@@H]1[C@@H](O)[C@@H](O[C@@H]2[C@@H](O)[C@H](O[C@H]3OC(CN)=CC[C@H]3N)[C@@H](N)C[C@H]2N)OC[C@]1(C)O [sisomicin]
complex formation with 16S A site RNA [8]: Weaker complexes

NC[C@H]1O[C@H](O[C@H]2[C@H](O)[C@@H](O[C@H]3O[C@H](CO)[C@@H](O)[C@H](N)[C@H]3O)[C@H](N)C[C@@H]2N)[C@H](N)C[C@@H]1O [tobramycin]
complex formation with 16S A site RNA [8]: Weaker complexes
